# Reference: patent US20250268903A1, “RXFP1 AGONISTS” (BRISTOL-MYERS SQUIBB COMPANY, priority 2021, published 2025)
# Target: T1, human RXFP1 (Homo sapiens, UniProt Q9HBX9)
# T1 construct: expressed in transfected cells
# T1 sequence (Q9HBX9 1-757): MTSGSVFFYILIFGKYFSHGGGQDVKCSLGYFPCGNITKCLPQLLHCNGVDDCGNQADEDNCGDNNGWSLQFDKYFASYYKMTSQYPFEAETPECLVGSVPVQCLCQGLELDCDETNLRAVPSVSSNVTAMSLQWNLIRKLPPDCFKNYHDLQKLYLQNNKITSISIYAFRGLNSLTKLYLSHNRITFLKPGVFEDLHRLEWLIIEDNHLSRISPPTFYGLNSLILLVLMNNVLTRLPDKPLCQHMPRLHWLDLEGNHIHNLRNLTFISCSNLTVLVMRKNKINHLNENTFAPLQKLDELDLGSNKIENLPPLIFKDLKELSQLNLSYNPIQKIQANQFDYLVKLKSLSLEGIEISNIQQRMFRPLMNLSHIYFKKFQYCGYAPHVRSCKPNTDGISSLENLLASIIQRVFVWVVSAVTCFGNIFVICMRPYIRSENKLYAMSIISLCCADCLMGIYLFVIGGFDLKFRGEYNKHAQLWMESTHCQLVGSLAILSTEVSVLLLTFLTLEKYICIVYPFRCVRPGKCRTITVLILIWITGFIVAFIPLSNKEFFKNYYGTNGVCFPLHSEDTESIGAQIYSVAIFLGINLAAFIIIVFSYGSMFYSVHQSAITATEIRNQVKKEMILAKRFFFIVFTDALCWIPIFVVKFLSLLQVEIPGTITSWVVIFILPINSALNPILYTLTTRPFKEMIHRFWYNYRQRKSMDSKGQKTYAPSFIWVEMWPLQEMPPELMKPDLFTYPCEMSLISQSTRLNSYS
# Assay: hRXFP1 HEK293 cAMP assay (HTRF)
# Assay type: cell-based
# Settings: HEK293 cells stably expressing human RXFP1, 30 min at room temperature
# Procedure: RXFP1 Cyclic Adenosine Monophosphate (cAMP) Assays. […] Cells were dissociated and suspended in assay buffer. The assay buffer was HBSS buffer (with calcium and magnesium) containing 20 mM HEPES, 0.05% BSA, and 0.5 mM IBMX. Cells (3000 cells per well, except 1500 cell per well for HEK293 cells stably expressing human RXFP1) were added to 384-well Proxiplates (Perkin-Elmer). Cells were immediately treated with test compounds in DMSO (2% final) at final concentrations in the range of 0.010 nM to 50 μM. Cells were incubated for 30 min at room temperature. The level of intracellular cAMP was determined using the HTRF HiRange cAMP assay reagent kit (Cisbio) according to manufacturer's instructions. Solutions of cryptate conjugated anti-cAMP and d2 fluorophore-labelled cAMP were made in a supplied lysis buffer separately. Upon completion of the reaction, the cells were lysed with equal volume of the d2-cAMP solution and anti-cAMP solution. […] The potency and activity of a compound to […] cAMP production was then determined by fitting to a 4-parametric logistic equation from a plot of cAMP level versus compound concentrations.
row,Compound,EC50
1,"2-(3-{[(2R,3S,7Z)- 3-{[4-fluoro-3- (trifluoromethyl)phe- nyl]carbamoyl}-7- (2,2,2- trifluoroethylidene)bi- cyclo[2.2.1]heptan- 2-yl]carbamoyl}-4- methoxyphenyl)ethyl N-phenylcarbamate [Example 56]",447 nM
2,"4-(3-{[(2R,3S,7Z)- 3-{[4-fluoro-3- (trifluoromethyl)phe- nyl]carbamoyl}-7- (2,2,2- trifluoroethylidene)bi- cyclo[2.2.1]heptan- 2-yl]carbamoyl}-4- methoxyphenyl)cyclo- hexyl N- phenylcarbamate [Example 54]",158 nM
3,COc1ccc(C2CCCCC2O)cc1C(=O)N[C@@H]1C2CCC(/C2=C/C(F)(F)F)[C@@H]1C(=O)Nc1ccc(F)c(C(F)(F)F)c1 (mixture of isomers) [Example 59],1270 nM
4,"COc1ccc(C(O)C(F)(F)F)cc1C(=O)NC1C2CCC(/C2=C/C(F)(F)F)[C@@H]1C(=O)Nc1ccc(F)c(C(F)(F)F)c1 (single isomer, unassigned) [Example 5]",1010 nM
5,"COc1ccc(C(O)C(F)(F)F)cc1C(=O)NC1C2CCC(/C2=C/C(F)(F)F)[C@@H]1C(=O)Nc1ccc(F)c(C(F)(F)F)c1 (single isomer, unassigned) [Example 6]",1240 nM
6,"COc1ccc(COC2CCC(OCc3ccccc3)CC2)cc1C(=O)N[C@@H]1C2CCC(/C2=C/C2CC2)[C@@H]1C(=O)Nc1ccc(F)c(C(F)(F)F)c1 (single isomer, unassigned) [Example 23]",993 nM
7,"COc1ccc(COC2CCC(OCc3ccccc3)CC2)cc1C(=O)N[C@@H]1C2CCC(/C2=C/C2CC2)[C@@H]1C(=O)Nc1ccc(F)c(C(F)(F)F)c1 (single isomer, unassigned) [Example 24]",1810 nM
8,"COc1ccc(C2CCCC(NC(=O)C3CCOCC3)C2)cc1C(=O)N[C@@H]1C2CCC(/C2=C/C(F)(F)F)[C@@H]1C(=O)Nc1ccc(F)c(C(F)(F)F)c1 (single isomer, unassigned) [Example 48]",833 nM
9,"COc1ccc(C2CCCC(NC(=O)C3CCOCC3)C2)cc1C(=O)N[C@@H]1C2CCC(/C2=C/C(F)(F)F)[C@@H]1C(=O)Nc1ccc(F)c(C(F)(F)F)c1 (single isomer, unassigned) [Example 49]",833 nM
10,"COc1ccc(C2CCCC(NC(=O)C3CCOCC3)C2)cc1C(=O)N[C@@H]1C2CCC(/C2=C/C(F)(F)F)[C@@H]1C(=O)Nc1ccc(F)c(C(F)(F)F)c1 (single isomer, unassigned) [Example 50]",2350 nM
11,"COc1ccc(C2CCCC(NC(=O)C3CCOCC3)C2)cc1C(=O)N[C@@H]1C2CCC(/C2=C/C(F)(F)F)[C@@H]1C(=O)Nc1ccc(F)c(C(F)(F)F)c1 (single isomer, unassigned) [Example 51]",2350 nM
12,"COc1ccc(C2CCCCC2O)cc1C(=O)N[C@@H]1C2CCC(/C2=C/C(F)(F)F)[C@@H]1C(=O)Nc1ccc(F)c(C(F)(F)F)c1 (single isomer, unassigned) [Example 57]",1440 nM
13,"COc1ccc(C2CCCCC2O)cc1C(=O)N[C@@H]1C2CCC(/C2=C/C(F)(F)F)[C@@H]1C(=O)Nc1ccc(F)c(C(F)(F)F)c1 (single isomer, unassigned) [Example 58]",1200 nM
14,"COc1ccc(C2CC2C(=O)O)cc1C(=O)N[C@@H]1C2CCC(/C2=C/C(F)(F)F)[C@@H]1C(=O)Nc1ccc(F)c(C(F)(F)F)c1 (single isomer, unassigned) [Example 63]",4420 nM
15,"COC(=O)C1CC2(C1)CC(c1ccc(OC)c(C(=O)N[C@@H]3C4CCC(/C4=C/C(F)(F)F)[C@@H]3C(=O)Nc3ccc(F)c(C(F)(F)F)c3)c1)C2 (single isomer, unassigned) [Example 149]",857 nM

# Now from value to compound:
row,EC50,Compound
1,667 nM,"COc1ccc(C2CCCC(O)C2)cc1C(=O)N[C@@H]1C2CCC(/C2=C/C(F)(F)F)[C@@H]1C(=O)Nc1ccc(F)c(C(F)(F)F)c1 (single isomer, unassigned) [Example 35]"
2,442 nM,"COc1ccc(C2CCCC(O)C2)cc1C(=O)N[C@@H]1C2CCC(/C2=C/C(F)(F)F)[C@@H]1C(=O)Nc1ccc(F)c(C(F)(F)F)c1 (single isomer, unassigned) [Example 36]"
3,780 nM,"COc1ccc(C2CCCC(O)C2)cc1C(=O)N[C@@H]1C2CCC(/C2=C/C(F)(F)F)[C@@H]1C(=O)Nc1ccc(F)c(C(F)(F)F)c1 (single isomer, unassigned) [Example 37]"
4,250 nM,"COc1ccc(C2CCCC(O)C2)cc1C(=O)N[C@@H]1C2CCC(/C2=C/C(F)(F)F)[C@@H]1C(=O)Nc1ccc(F)c(C(F)(F)F)c1 (single isomer, unassigned) [Example 38]"
5,19 nM,"COc1ccc(C2CCCC(OC(=O)Nc3ccccc3)C2)cc1C(=O)N[C@@H]1C2CCC(/C2=C/C(F)(F)F)[C@@H]1C(=O)Nc1ccc(F)c(C(F)(F)F)c1 (single isomer, unassigned) [Example 40]"
6,201 nM,"COc1ccc(C2CCCC(OC(=O)Nc3ccccc3)C2)cc1C(=O)N[C@@H]1C2CCC(/C2=C/C(F)(F)F)[C@@H]1C(=O)Nc1ccc(F)c(C(F)(F)F)c1 (single isomer, unassigned) [Example 41]"
7,214 nM,"COc1ccc(C2CCCC(OC(=O)Nc3ccccc3)C2)cc1C(=O)N[C@@H]1C2CCC(/C2=C/C(F)(F)F)[C@@H]1C(=O)Nc1ccc(F)c(C(F)(F)F)c1 (single isomer, unassigned) [Example 42]"
8,157 nM,"COc1ccc(C2CCCC(OC(=O)Nc3ccccc3)C2)cc1C(=O)N[C@@H]1C2CCC(/C2=C/C(F)(F)F)[C@@H]1C(=O)Nc1ccc(F)c(C(F)(F)F)c1 (single isomer, unassigned) [Example 43]"
9,276 nM,"COc1ccc(C2CCC(O)CC2)cc1C(=O)NC1C2CCC(/C2=C/C(F)(F)F)[C@@H]1C(=O)Nc1ccc(F)c(C(F)(F)F)c1 (single isomer, unassigned) [Example 52]"
10,396 nM,"COc1ccc(C2CCC(O)CC2)cc1C(=O)NC1C2CCC(/C2=C/C(F)(F)F)[C@@H]1C(=O)Nc1ccc(F)c(C(F)(F)F)c1 (single isomer, unassigned) [Example 53]"
11,648 nM,"COc1ccc(C(C)CCO)cc1C(=O)N[C@@H]1C2CCC(/C2=C/C(F)(F)F)[C@@H]1C(=O)Nc1ccc(F)c(C(F)(F)F)c1 (single isomer, unassigned) [Example 60]"
12,603 nM,"COc1ccc(C(C)CCO)cc1C(=O)N[C@@H]1C2CCC(/C2=C/C(F)(F)F)[C@@H]1C(=O)Nc1ccc(F)c(C(F)(F)F)c1 (single isomer, unassigned) [Example 61]"
13,172 nM,"COc1ccc(C2CC2C(=O)O)cc1C(=O)N[C@@H]1C2CCC(/C2=C/C(F)(F)F)[C@@H]1C(=O)Nc1ccc(F)c(C(F)(F)F)c1 (single isomer, unassigned) [Example 62]"
14,252 nM,"COc1ccc(C2CC2CO)cc1C(=O)N[C@@H]1C2CCC(/C2=C/C(F)(F)F)[C@@H]1C(=O)Nc1ccc(F)c(C(F)(F)F)c1 (single isomer, unassigned) [Example 64]"
15,250 nM,"COc1ccc(C2CC2CO)cc1C(=O)N[C@@H]1C2CCC(/C2=C/C(F)(F)F)[C@@H]1C(=O)Nc1ccc(F)c(C(F)(F)F)c1 (single isomer, unassigned) [Example 65]"
16,142 nM,"COc1ccc(CC(C)CO)cc1C(=O)N[C@@H]1C2CCC(/C2=C/C(F)(F)F)[C@@H]1C(=O)Nc1ccc(F)c(C(F)(F)F)c1 (single isomer, unassigned) [Example 66]"
17,193 nM,"COc1ccc(CC(C)CO)cc1C(=O)N[C@@H]1C2CCC(/C2=C/C(F)(F)F)[C@@H]1C(=O)Nc1ccc(F)c(C(F)(F)F)c1 (single isomer, unassigned) [Example 67]"
18,715 nM,"COC(=O)C1CC2(C1)CC(c1ccc(OC)c(C(=O)N[C@@H]3C4CCC(/C4=C/C(F)(F)F)[C@@H]3C(=O)Nc3ccc(F)c(C(F)(F)F)c3)c1)C2 (single isomer, unassigned) [Example 150]"
19,51 nM,"COc1ccc(CCCO)cc1C(=O)NC1C2CCC(/C2=C/C2CCCOC2)[C@@H]1C(=O)Nc1ccc(F)c(C(F)(F)F)c1 (single isomer, unassigned) [Example 170, (7Z)-N-[4-fluoro-3-(trifluoromethyl)phe-nyl]-3-[5-(3-hydroxypropyl)-2-methoxybenzamido]-7-[(oxan-3-yl)methylidene]bicy-clo[2.2.1]heptane-2-carboxamide]"
